According to ChEMBL document CHEMBL1201862, “PubChem BioAssay data set” (2004):
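Compound exposure: 48 hours, 5 concentrations, 96-well plates. Abbreviation: GI50, concentration required for 50% inhibition of growth.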 Active and inactive are the calls of the source. Cut-off read from the data, not from the text of the source: active = GI50 up to about 1.1 µM and inactive = higher.

Columns and labels:
Test in all cases: NCI tumour cell line growth inhibition, 48 h
A498 = tested on: A498
HCT-116 = tested on: HCT-116
A549 = tested on: A549
NCI-H226 = tested on: NCI-H226
HOP-62 = tested on: HOP-62
OVCAR-5 = tested on: OVCAR-5
LOX IMVI = tested on: LOX IMVI
COLO 205 = tested on: COLO 205
OVCAR-8 = tested on: OVCAR-8
DU-145 = tested on: DU-145
EKVX = tested on: EKVX
HT-29 = tested on: HT-29
SF-295 = tested on: SF-295
PC-3 = tested on: PC-3
K562 = tested on: K562
ACHN = tested on: ACHN
SNB-19 = tested on: SNB-19
SN12C = tested on: SN12C
UO-31 = tested on: UO-31
SF-539 = tested on: SF-539
SK-OV-3 = tested on: SK-OV-3
UACC-257 = tested on: UACC-257
CCRF-CEM = tested on: CCRF-CEM
M14 = tested on: M14
U-251 = tested on: U-251
NCI/ADR-RES = tested on: NCI/ADR-RES
KM12 = tested on: KM12
SF-268 = tested on: SF-268
NCI-H23 = tested on: NCI-H23
SR = tested on: SR
Malme-3M = tested on: Malme-3M
BT-549 = tested on: BT-549
RXF 393 = tested on: RXF 393
786-0 = tested on: 786-0
SNB-75 = tested on: SNB-75
MCF7 = tested on: MCF7
UACC-62 = tested on: UACC-62
MOLT-4 = tested on: MOLT-4
MDA-N = tested on: MDA-N
SW-620 = tested on: SW-620
SK-MEL-28 = tested on: SK-MEL-28
NCI-H522 = tested on: NCI-H522
RPMI-8226 = tested on: RPMI-8226
SK-MEL-5 = tested on: SK-MEL-5
MDA-MB-231 = tested on: MDA-MB-231
T47D = tested on: T47D
IGROV-1 = tested on: IGROV-1
MDA-MB-435 = tested on: MDA-MB-435
HL-60 = tested on: HL-60
HCT-15 = tested on: HCT-15
Hs-578T = tested on: Hs-578T
TK-10 = tested on: TK-10
SK-MEL-2 = tested on: SK-MEL-2
CAKI-1 = tested on: CAKI-1
NCI-H460 = tested on: NCI-H460
OVCAR-3 = tested on: OVCAR-3
HOP-92 = tested on: HOP-92
OVCAR-4 = tested on: OVCAR-4
HCC 2998 = tested on: HCC 2998

For `CCCCCC/C=C\CCCCCCCCCc1cccc(OC)c1O`, the GI50 (A498) was 41.2 µM (inactive), the GI50 (HCT-116) was 44.2 µM (inactive) and the GI50 (A549) was > 100 µM (inactive). For the same compound, the GI50 (NCI-H226) was > 100 µM (inactive), the GI50 (HOP-62) was > 100 µM (inactive) and the GI50 (OVCAR-5) was > 100 µM (inactive). For the same compound, the GI50 (LOX IMVI) was > 100 µM (inactive), the GI50 (COLO 205) was > 100 µM (inactive) and the GI50 (OVCAR-8) was 38.3 µM (inactive). For the same compound, the GI50 (DU-145) was > 100 µM (inactive), the GI50 (EKVX) was > 100 µM (inactive) and the GI50 (HT-29) was > 100 µM (inactive). The GI50 (SF-295) was > 100 µM (inactive), the GI50 (PC-3) was 63.8 µM (inactive) and the GI50 (K562) was > 100 µM (inactive). For the same compound, the GI50 (ACHN) was > 100 µM (inactive), the GI50 (SNB-19) was > 100 µM (inactive) and the GI50 (SN12C) was > 100 µM (inactive). For the same compound, the GI50 (UO-31) was > 100 µM (inactive), the GI50 (SF-539) was > 100 µM (inactive) and the GI50 (SK-OV-3) was > 100 µM (inactive). For the same compound, the GI50 (UACC-257) was > 100 µM (inactive), the GI50 (CCRF-CEM) was > 100 µM (inactive) and the GI50 (M14) was > 100 µM (inactive). For the same compound, the GI50 (U-251) was > 100 µM (inactive), the GI50 (NCI/ADR-RES) was 41.2 µM (inactive) and the GI50 (KM12) was 80 µM (inactive). For the same compound, the GI50 (SF-268) was > 100 µM (inactive), the GI50 (NCI-H23) was 86.9 µM (inactive) and the GI50 (SR) was > 10 µM (inactive). The GI50 (Malme-3M) was > 100 µM (inactive), the GI50 (BT-549) was > 100 µM (inactive) and the GI50 (RXF 393) was 67.6 µM (inactive). The GI50 (786-0) was > 100 µM (inactive), the GI50 (SNB-75) was > 100 µM (inactive) and the GI50 (MCF7) was 75.5 µM (inactive). The GI50 (UACC-62) was > 100 µM (inactive), the GI50 (MOLT-4) was > 100 µM (inactive) and the GI50 (MDA-N) was 85.9 µM (inactive). The GI50 (SW-620) was > 100 µM (inactive), the GI50 (SK-MEL-28) was > 100 µM (inactive) and the GI50 (NCI-H522) was 47.1 µM (inactive). The GI50 (RPMI-8226) was > 100 µM (inactive), the GI50 (SK-MEL-5) was > 100 µM (inactive) and the GI50 (MDA-MB-231) was > 100 µM (inactive). The GI50 (T47D) was > 100 µM (inactive), the GI50 (IGROV-1) was > 100 µM (inactive) and the GI50 (MDA-MB-435) was > 100 µM (inactive). For the same compound, the GI50 (HL-60) was > 100 µM (inactive), the GI50 (HCT-15) was > 100 µM and the GI50 (Hs-578T) was > 100 µM (inactive). For the same compound, the GI50 (TK-10) was > 100 µM (inactive), the GI50 (SK-MEL-2) was > 100 µM (inactive) and the GI50 (CAKI-1) was > 100 µM (inactive).
With `O=C(N1CCOCC1)C1(c2ccccc2)CCNCC1` the GI50 (A498) was > 100 µM (inactive), the GI50 (HCT-116) was > 100 µM (inactive) and the GI50 (A549) was > 100 µM (inactive). For the same compound, the GI50 (NCI-H226) was > 100 µM (inactive), the GI50 (HOP-62) was > 100 µM (inactive) and the GI50 (OVCAR-5) was > 100 µM (inactive). The GI50 (LOX IMVI) was > 100 µM (inactive), the GI50 (COLO 205) was > 100 µM (inactive) and the GI50 (OVCAR-8) was > 100 µM (inactive). For the same compound, the GI50 (DU-145) was > 100 µM (inactive), the GI50 (EKVX) was > 100 µM (inactive) and the GI50 (NCI-H460) was > 100 µM (inactive). For the same compound, the GI50 (HT-29) was > 100 µM (inactive), the GI50 (SF-295) was > 100 µM (inactive) and the GI50 (PC-3) was > 100 µM (inactive). For the same compound, the GI50 (K562) was > 100 µM (inactive), the GI50 (ACHN) was > 100 µM (inactive) and the GI50 (SNB-19) was > 100 µM (inactive). For the same compound, the GI50 (SN12C) was > 100 µM (inactive), the GI50 (UO-31) was > 100 µM (inactive) and the GI50 (SF-539) was > 100 µM (inactive). For the same compound, the GI50 (SK-OV-3) was > 100 µM (inactive), the GI50 (UACC-257) was > 100 µM (inactive) and the GI50 (CCRF-CEM) was 0.0488 µM (active). For the same compound, the GI50 (M14) was > 100 µM (inactive), the GI50 (U-251) was > 100 µM (inactive) and the GI50 (NCI/ADR-RES) was > 100 µM (inactive). For the same compound, the GI50 (KM12) was > 100 µM (inactive), the GI50 (SF-268) was > 100 µM (inactive) and the GI50 (NCI-H23) was > 100 µM (inactive). For the same compound, the GI50 (SR) was > 100 µM (inactive), the GI50 (Malme-3M) was > 100 µM (inactive) and the GI50 (OVCAR-3) was > 100 µM (inactive). The GI50 (BT-549) was > 100 µM (inactive), the GI50 (RXF 393) was > 100 µM (inactive) and the GI50 (786-0) was > 100 µM (inactive). For the same compound, the GI50 (SNB-75) was > 100 µM (inactive), the GI50 (MCF7) was > 100 µM (inactive) and the GI50 (UACC-62) was > 100 µM (inactive). For the same compound, the GI50 (MOLT-4) was > 100 µM (inactive), the GI50 (MDA-N) was > 100 µM (inactive) and the GI50 (SW-620) was > 100 µM (inactive). For the same compound, the GI50 (SK-MEL-28) was > 100 µM (inactive), the GI50 (NCI-H522) was > 100 µM (inactive) and the GI50 (RPMI-8226) was > 100 µM (inactive). The GI50 (SK-MEL-5) was > 100 µM (inactive), the GI50 (MDA-MB-231) was > 100 µM (inactive) and the GI50 (HOP-92) was > 100 µM (inactive). For the same compound, the GI50 (T47D) was > 100 µM (inactive), the GI50 (IGROV-1) was > 100 µM (inactive) and the GI50 (MDA-MB-435) was > 100 µM (inactive). The GI50 (OVCAR-4) was > 100 µM (inactive), the GI50 (HCT-15) was > 100 µM and the GI50 (Hs-578T) was > 100 µM (inactive). The GI50 (TK-10) was > 100 µM (inactive), the GI50 (SK-MEL-2) was > 100 µM (inactive) and the GI50 (CAKI-1) was > 100 µM (inactive).
`Nc1ccc(Cc2ccc(/N=C\c3ccc(OCc4cccc(COc5ccc(/C=N\c6ccc(Cc7ccc(N)cc7)cc6)cc5)n4)cc3)cc2)cc1` was tested, and the GI50 (A498) was 61.5 µM (inactive), the GI50 (HCC 2998) was > 100 µM (inactive) and the GI50 (HCT-116) was > 100 µM (inactive). The GI50 (A549) was > 100 µM (inactive), the GI50 (NCI-H226) was > 100 µM (inactive) and the GI50 (HOP-62) was 37.5 µM (inactive). For the same compound, the GI50 (OVCAR-5) was > 100 µM (inactive), the GI50 (LOX IMVI) was > 100 µM (inactive) and the GI50 (COLO 205) was > 100 µM (inactive). The GI50 (OVCAR-8) was 62.8 µM (inactive), the GI50 (DU-145) was > 100 µM (inactive) and the GI50 (EKVX) was 94.6 µM (inactive). The GI50 (NCI-H460) was > 100 µM (inactive), the GI50 (HT-29) was > 100 µM (inactive) and the GI50 (SF-295) was 50.1 µM (inactive). For the same compound, the GI50 (PC-3) was > 100 µM (inactive), the GI50 (K562) was > 100 µM (inactive) and the GI50 (ACHN) was > 100 µM (inactive). The GI50 (SNB-19) was 41.7 µM (inactive), the GI50 (SN12C) was > 100 µM (inactive) and the GI50 (UO-31) was > 100 µM (inactive). The GI50 (SF-539) was 4.29 µM (inactive), the GI50 (UACC-257) was > 100 µM (inactive) and the GI50 (CCRF-CEM) was > 100 µM (inactive). For the same compound, the GI50 (M14) was > 100 µM (inactive), the GI50 (U-251) was 41 µM (inactive) and the GI50 (NCI/ADR-RES) was > 100 µM (inactive). For the same compound, the GI50 (KM12) was > 100 µM (inactive), the GI50 (SF-268) was 45.2 µM (inactive) and the GI50 (NCI-H23) was 99.1 µM (inactive). The GI50 (SR) was > 100 µM (inactive), the GI50 (Malme-3M) was 63.1 µM (inactive) and the GI50 (OVCAR-3) was 72.3 µM (inactive). The GI50 (BT-549) was > 100 µM (inactive), the GI50 (RXF 393) was 23.1 µM (inactive) and the GI50 (786-0) was 65.9 µM (inactive). For the same compound, the GI50 (SNB-75) was 13.2 µM (inactive), the GI50 (MCF7) was > 100 µM (inactive) and the GI50 (UACC-62) was > 100 µM (inactive). The GI50 (MOLT-4) was > 100 µM (inactive), the GI50 (MDA-N) was > 100 µM (inactive) and the GI50 (SW-620) was > 100 µM (inactive). For the same compound, the GI50 (SK-MEL-28) was > 100 µM (inactive), the GI50 (NCI-H522) was > 100 µM (inactive) and the GI50 (RPMI-8226) was > 100 µM (inactive). For the same compound, the GI50 (SK-MEL-5) was > 100 µM (inactive), the GI50 (MDA-MB-231) was 27 µM (inactive) and the GI50 (T47D) was 68.9 µM (inactive). The GI50 (IGROV-1) was > 100 µM (inactive), the GI50 (MDA-MB-435) was > 100 µM (inactive) and the GI50 (HL-60) was > 100 µM (inactive). The GI50 (OVCAR-4) was 85.1 µM (inactive), the GI50 (HCT-15) was > 100 µM and the GI50 (Hs-578T) was 65.6 µM (inactive). For the same compound, the GI50 (TK-10) was 81.3 µM (inactive), the GI50 (SK-MEL-2) was 39.2 µM (inactive) and the GI50 (CAKI-1) was > 100 µM (inactive).
